Source: patent US10513520B2, “Sulfamide and sulfamate inhibitors of hHint1” (Regents of the University of Minnesota, priority 2016, dated 2019)
Structures can show the parent of a compound that is named as a salt. Where two headings read alike, the source gives them in different places.

Experiments:
hHint1 [1] = molecular target: T1, hHint1 (Homo sapiens (Human), UniProt P49773); test: Isothermal titration calorimetry (ITC) of hHint1-ligand complexes; type: binding; conditions: for Kd / ΔG / ΔH / −TΔS: ITC, hHint1; for Kd: 20° C.
T1 sequence (P49773 whole entry): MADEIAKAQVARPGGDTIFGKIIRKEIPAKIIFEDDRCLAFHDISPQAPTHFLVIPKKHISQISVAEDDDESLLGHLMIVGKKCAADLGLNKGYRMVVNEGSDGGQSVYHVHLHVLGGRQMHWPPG
Description: Isothermal Titration Calorimetry (ITC) ITC experiments were conducted on a MicroCal Auto-ITC200 system (GE Healthcare life sciences). […] To determine the dissociation constant of stock concentration (300-400 uM) of inhibitors was titrated with 15-20 uM of Hint1. Twenty injections of ligand were injected (injection volume 2 ul) into the protein cell. […] The in vitro binding affinity of the new series was evaluated of analogues for hHint1 using isothermal calorimetry (ITC).

[2] = Solubility (aqueous buffers, water, DMSO); type: physicochemical
Source text: Replacement of the 5′-oxygen atom in the acyl-sulfamate with a nitrogen affords an acyl-sulfamide backbone, which increases the pKa of the backbone NH by 2-3 units.

ICR mice [3] = test: Spared nerve injury (SNI), von Frey mechanical threshold testing; type: in vivo, mouse; conditions: for SNI-induced mechanical hypersensitivity, injection on day 7 following injury: 1 nmol intrathecally 7 days post spared nerve injury; for SNI-induced mechanical hypersensitivity, pretreatment: 1 nmol intrathecally prior to spared nerve injury
Description: Male and Female ICR mice (25-30 g) were given 1 nmol of TpGc prior to (Panel A) or 7 days post (Panel B) spared nerve injury. A separate cohort (Panel C) of male ICR mice (25-50 g) were given 1 nmol of compound 7 intrathecally both prior to and 7 days post spared nerve injury. All cohorts were evaluated with Von Frey mechanical threshold testing.
Male and female ICR mice were given 1 nmol of HINT1 inhibitor TpGc or 7 intrathecally either immediately prior to or 7 days following induction of neuropathic pain via spared nerve injury (Decosterd, 2000). Briefly, an incision is made into the leg of the mouse directly above the branching of the sciatic nerve. The peroneal and tibial branches of the nerve are ligated and cut while the sural branch is left intact, leading to a localized hypersensitivity on the lateral portion of the hindpaw. Von Frey mechanical testing was performed prior to surgery and for up to 7 days post surgery.

ICR mice [4] = test: Inhibition of morphine inhibition of NMDA-evoked scratching and biting behavior; type: in vivo, mouse; conditions: male mice, intrathecal pretreatment before morphine and NMDA
Description: Male ICR mice (25-30) were given TpGc (10 nmol) 10 minutes before morphine sulfate (10 nmol) intrathecally. After a period of 10 minutes, NMDA was injected intrathecally and scratching and biting behaviors were quantified. The MPE % was calculated using morphine alone as the positive control.
Male mice were given intrathecal treatment of either morphine or morphine+a HINT1 inhibitor. They were then given an intrathecal injection of NMDA and scratching and biting behaviors were counted for 1 minute. […]

mice [5] = conditions: icv, cited from earlier work
hHint1 [6] = molecular target: T1, hHint1; test: Fluorescence assay of hHint1 activity at fixed saturating substrate concentration; type: biochemical
Source text: The effect of a non-hydrolyzable nucleotide analog Bio-AMS was compared with compound 3 on the activity of hHint1 using a fluorescence assay described previously.^3
Isothermal titration calorimetry (ITC) was used to investigate the nature of non-covalent interactions on the inhibitory activity of Bio-AMS on hHint1.

hHint1 [7] = molecular target: T1, hHint1; conditions: ITC, cited from earlier work
ICR mice [8] = test: Development of morphine analgesic tolerance, tail flick assay; type: in vivo, mouse; conditions: HINT1 inhibitor+morphine intrathecally for 3 days, morphine challenge on Day 4
mice [9] = conditions: single icv administration, CCI mice, cited from earlier work
[10] = data adapted from Garzon et al.

Compound: CCCC(=O)NS(=O)(=O)OC[C@H]1O[C@@H](n2cnc3c(=O)[nH]c(N)nc32)C(O)C1O (stereo partly drawn) [Compound 5]
- Kd (hHint1 [1]): 2.9 ± 0.25 µM
- ΔG (hHint1 [1]): -5.81 ± 1.0 kcal/mol
- ΔH (hHint1 [1]): -13.59 ± 1.12 kcal/mol
- −TΔS (hHint1 [1]): 7.71 ± 0.27 kcal/mol
- decrease in the enthalpy of binding (hHint1 [1]; compared with compound 4): ~2 kcal/mol
- fold greater dissociation constant in comparison to 4 (hHint1 [1]; compared with compound 4): 3-4 fold
- stock solutions easily prepared in aqueous buffers [2]: up to 5 mM

Compound: Nc1nc2c(ncn2[C@@H]2O[C@H](COC(=O)NCCc3c[nH]c4ccccc34)[C@@H](O)[C@H]2O)c(=O)[nH]1 [Compound 3, guanosine-5′-tryptamine carbamate]
- SNI-induced mechanical hypersensitivity, injection on day 7 following injury (ICR mice [3]): transient reversal of mechanical hypersensitivity
- SNI-induced mechanical hypersensitivity, pretreatment (ICR mice [3]): sustained attenuation of SNI-induced mechanical hypersensitivity
- ED50, attenuation of morphine's inhibition of NMDA-evoked behavior (ICR mice [4]): 0.00061 µM
- effect on development of morphine tolerance (mice [5]; listed as TpGc): reduced the development of acute tolerance
- effect on morphine analgesia / antinociception (mice [5]; listed as TpGc): potentiated morphine-evoked antinociception
- effect on development of morphine tolerance (mice [5]): rescues and prevents the development of NMDAR mediated morphine tolerance
- effect on morphine analgesia / antinociception (mice [5]): enhances morphine analgesia
- IC50 (hHint1 [6]): 25.5 ± 6 µM
- ΔG (hHint1 [7]; [10]): -4.1 ± 2.0 kcal/mol
- ΔH (hHint1 [7]; [10]): -13.54 ± 1.00 kcal/mol
- −TΔS (hHint1 [7]; [10]): 9.54 ± 4.17 kcal/mol
- Kd (hHint1 [7]; data adapted from previously published result by Garzon et al.): 3.65 ± 1 µM
- morphine potency and efficacy after tolerance development protocol (ICR mice [8]): equivalent potency and efficacy compared to the saline pre-treatment
- aqueous solubility ([2]; in words): poor solubility
- mechanical allodynia (mice [9]): reduce mechanical allodynia in animals for several days
- mechanical allodynia (mice [9]; listed as TpGc): significant attenuation of mechanical allodynia that persisted for several days

Compound: Nc1nc2c(ncn2[C@@H]2O[C@H](COS(=O)(=O)NC(=O)CCc3c[nH]c4ccccc34)C(O)[C@@H]2O)c(=O)[nH]1 (stereo partly drawn) [Compound 4, 5′-O—[N-(3-Indolepropionic acid)sulfamoyl] Guanosine Triethylammonium Salt]
- ΔG (hHint1 [1]): -8.46 ± 0.4 kcal/mol
- ΔH (hHint1 [1]): -16.51 ± 0.17 kcal/mol
- −TΔS (hHint1 [1]): 8.05 ± 0.88 kcal/mol
- fold increase in binding affinity over compound 3 (hHint1 [1]; compared with compound 3): 4.5 fold
- stock solutions easily prepared in aqueous buffers [2]: up to 5 mM

Compound: Nc1nc2c(ncn2[C@@H]2O[C@H](CNS(=O)(=O)NC(=O)CCc3c[nH]c4ccccc34)C(O)C2O)c(=O)[nH]1 (stereo partly drawn) [Compound 6, 5′-N—[N-(3-Indolepropionic acid)sulfamoyl] Guanosine Triethylammonium Salt]
- Kd (hHint1 [1]): 0.92 ± 0.07 µM
- ΔG (hHint1 [1]): -8.24 ± 0.12 kcal/mol
- ΔH (hHint1 [1]): -14.75 ± 0.12 kcal/mol
- −TΔS (hHint1 [1]): 6.57 ± 0.17 kcal/mol
- stock solutions easily prepared in aqueous buffers [2]: up to 5 mM

Compound: O=C(CCc1c[nH]c2ccccc12)NS(=O)(=O)OC[C@H]1O[C@@H](n2cnc3c2ncn2ccnc32)[C@@H](O)C1O (stereo partly drawn) [Compound 7, 5′-O—[N-(3-Indolepropionic acid)sulfamoyl]EthenoAdenosine Triethylammonium Salt]
- SNI-induced mechanical hypersensitivity, injection on day 7 following injury (ICR mice [3]): transient reversal that resolved at 4 hours post injection
- SNI-induced mechanical hypersensitivity, pretreatment (ICR mice [3]): did not lead to an attenuation of pain behavior
- ED50, attenuation of morphine's inhibition of NMDA-evoked behavior (ICR mice [4]): 0.00047 µM
- morphine potency and efficacy after tolerance development protocol (ICR mice [8]): equivalent potency and efficacy compared to the saline pre-treatment
- stock solutions easily prepared in aqueous buffers [2]: ≤ 20 mM

Compound: Nc1nc2c(ncn2C2OC(COS(=O)(=O)NC(=O)CCc3c[nH]c4ccccc34)C(O)C2O)c(=O)[nH]1 (single isomer, unassigned) [Compound 4, 5′-O—[N-(3-Indolepropionic acid)sulfamoyl] Guanosine Triethylammonium Salt]
- Kd (hHint1 [1]): 0.81 ± 0.11 µM
